Data published in patent US7361658B2, “2-acylaminothiazole derivative or salt thereof” (Astellas Pharma Inc., priority 2003, dated 2008).

Assays:
human c-mpl-Ba/F3 cells [1] = target: T1, human c-mpl-Ba/F3 cells (Homo sapiens, UniProt P40238); experiment: Mouse oral administration test: human c-mpl-Ba/F3 cell growth activity of a plasma after oral administration; assay type: in vivo; conditions: male ICR mouse, plasma 2 h after administration, maximum activity of each test compound = 100%
T1 construct: expressed in transfected cells; host or cells: Ba/F3 (murine pro-B cells) expressing human c-mpl
T1 sequence (P40238 26-635): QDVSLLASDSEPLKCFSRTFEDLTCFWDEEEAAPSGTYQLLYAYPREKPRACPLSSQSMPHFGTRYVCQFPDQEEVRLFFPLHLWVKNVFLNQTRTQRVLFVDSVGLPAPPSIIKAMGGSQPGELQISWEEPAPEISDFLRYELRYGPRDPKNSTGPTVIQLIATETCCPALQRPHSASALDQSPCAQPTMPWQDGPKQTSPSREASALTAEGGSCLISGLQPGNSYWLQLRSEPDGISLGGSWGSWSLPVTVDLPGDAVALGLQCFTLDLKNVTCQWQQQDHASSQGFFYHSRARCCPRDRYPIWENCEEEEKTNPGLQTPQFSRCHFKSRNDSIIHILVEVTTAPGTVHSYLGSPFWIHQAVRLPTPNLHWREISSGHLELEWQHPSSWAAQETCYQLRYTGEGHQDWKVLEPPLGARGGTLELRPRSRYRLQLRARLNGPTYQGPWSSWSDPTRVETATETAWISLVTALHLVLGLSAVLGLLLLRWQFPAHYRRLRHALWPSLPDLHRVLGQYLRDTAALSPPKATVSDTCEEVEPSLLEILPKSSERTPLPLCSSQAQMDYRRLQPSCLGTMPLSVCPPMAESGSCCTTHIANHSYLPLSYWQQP
Method: (iii) Mouse Oral Administration Test
3 mg/kg or 10 mg/kg (100 mg/kg in Comparative Compounds 1 to 3) of a test compound dissolved or suspended in a 0.5% methylcellulose aqueous solution was orally administered to a male ICR mouse. After 2 hours from administration, a blood was sampled from the subabdominal large vein using 1/10-volume 3.8% sodium citrate as an anticoagulant. Centrifugation was performed at 12,000 rpm for 3 minutes. The resulting plasma was heated at 56° C. for 30 minutes, and added to a system of the human c-mpl-Ba/F3 cell growth test described in (i) such that the final concentration of the plasma reached 0.3%, 1% or 3% (10% in Comparative Compounds 1 to 3) to measure a cell growth activity. The cell growth activity (%) of each plasma was measured when the maximum cell growth activity of each test compound was defined as 100%.

human c-mpl-Ba/F3 cells [2] = target: T1, human c-mpl-Ba/F3 cells; experiment: Human c-mpl-Ba/F3 cell growth test; assay type: cell-based; conditions: for Pot: concentration at which cell growth is accelerated by 30% of the maximum cell growth activity of compound A, 24 h culture; for Emax: read-out: Efficacy
Method: (i) Human c-mpl-Ba/F3 Cell Growth Test
In a 96-well microplate, 2×10^5 cells/ml of human c-mpl-Ba/F3 cells were cultured at 37° C. in 10% fetal bovine serum-containing RPMI1640 medium (100 μl/well) containing each test compound at each concentration. After 24 hours from the start-up of culture, 10 μl/well of WST-1/1-methoxy PMS (cell counting kit, Dojin) was added. Immediately after addition and 2 hours after addition, absorbance of A450/A650 was measured with a microplate reader (Model 3350: Bio-Rad), and an increase in absorbance for 2 hours was defined as a growth activity of each test compound.
pot: Concentration of each test compound at which to accelerate cell growth by 30% of a maximum cell growth activity of compound A (compound A and rhTPO in rhTPO)
Efficacy: Maximum cell growth activity of each test compound when a maximum cell growth activity of compound A (compound A and rhTPO in rhTPO) is defined as 100%.
Compound A refers to a compound in Example 9 of the foregoing Patent Document 10.

Human CD34+ cells = experiment: Test for measuring a function of accelerating formation of megakaryocytic colonies; assay type: cell-based; conditions: megakaryocytic colony formation, 10 to 14 days, MegaCult-C
Method: (ii) Test for Measuring a Function of Accelerating Formation of Megakaryocytic Colonies
Human CD34^+ cells were cultured in a 2-well chamber slide in the presence of a test product at 37° C. for from 10 to 14 days using MegaCult™-C (StemCell Technologies). After dehydration and fixation were conducted according to the attached manual, dying was conducted with an anti-glycoprotein IIb/IIIa antibody. The number of colonies for 1 well was counted by a microscope on condition that a population of 3 or more dyed megakaryocytes was one colony. An EC30 value of each test compound was calculated from a dose curve.

[3] = maximum cell growth activity, maximum of compound A defined as 100%
[4] = 3 mg/kg p.o., dilution rate 0.3%
[5] = 10 mg/kg p.o., dilution rate 3%

SMILES | Cell growth activity (human c-mpl-Ba/F3 cells [1]; 3 mg/kg p.o., dilution rate 3%) | Pot (human c-mpl-Ba/F3 cells [2]) [nM] | Emax (human c-mpl-Ba/F3 cells [2]; [3]) [%] | EC30 value (Human CD34+ cells) [nM] | Cell growth activity (human c-mpl-Ba/F3 cells [1]; 3 mg/kg p.o., dilution rate 1%) | Efficacy (human c-mpl-Ba/F3 cells [2]; [3]) [%] | Cell growth activity (human c-mpl-Ba/F3 cells [1]; [4]) | Cell growth activity (human c-mpl-Ba/F3 cells [1]; [5]) [%]
CCCCN(C)Cc1sc(NC(=O)c2cnc(N3CCC(C(=O)O)CC3)c(Cl)c2)nc1-c1cc(Cl)cs1 [Example 71, 1-(5-{[5-{[butyl(methyl)amino]methyl}-4-(4-chlorothiophen-2-yl)thiazol-2-yl]carbamoyl}-3-chloro-2-pyridyl)piperidin-4-carboxylic acid] | ≧80% | 2.0 | 110 | 20 | – | – | – | –
O=C(Nc1nc(-c2cc(Cl)cs2)c(CN2CCCCCC2)s1)c1cnc(N2CCC(C(=O)O)CC2)c(Cl)c1 [Example 84, 1-(5-{[5-(azepan-1-ylmethyl)-4-(4-chlorothiophen-2-yl)thiazol-2-yl]carbamoyl}-3-chloro-2-pyridyl)piperidine-4-carboxylic acid] | – | 4.2 | 103 | – | ≧80% | – | – | –
O=C(Nc1nc(-c2cc(Cl)cs2)c(CN2CCCCCCC2)s1)c1cnc(N2CCC(C(=O)O)CC2)c(Cl)c1 [Example 85] | – | 3.3 | – | – | ≧80% | 107 | – | –
CN(Cc1sc(NC(=O)c2cnc(N3CCC(C(=O)O)CC3)c(Cl)c2)nc1-c1cc(Cl)cs1)C1CCCCC1 [Example 90, 1-{3-chloro-5-[(4-(4-chlorothiophen-2-yl)-5-{[cyclohexyl(methyl)amino]methyl}thiazol-2-yl)carbamoyl]-2-pyridyl}piperidine-4-carboxylic acid] | – | 2.0 | 94 | – | – | – | ≧80% | –
CN(Cc1sc(NC(=O)c2cnc(N3CCC(C(=O)O)CC3)c(Cl)c2)nc1-c1cc(Cl)cs1)C1CCC1 [Example 100, 1-{3-chloro-5-[(4-(4-chlorothiophen-2-yl)-5-{[cyclobutyl(methyl)amino]methyl}thiazol-2-yl)carbamoyl]-2-pyridyl}piperidine-4-carboxylic acid] | ≧80% | 2.9 | 117 | 34 | – | – | – | –
CN(Cc1sc(NC(=O)c2cnc(N3CCC(C(=O)O)CC3)c(Cl)c2)nc1-c1cc(Cl)cs1)C1CC1 [Example 101, 1-{3-chloro-5-[(4-(4-chlorothiophen-2-yl)-5-{[cyclopropyl(methyl)amino]methyl}thiazol-2-yl)carbamoyl]-2-pyridyl}piperidine-4-carboxylic acid] | – | 3.1 | 108 | – | 76% | – | – | –
CC(C)N(C)Cc1sc(NC(=O)c2cnc(N3CCC(C(=O)O)CC3)c(Cl)c2)nc1-c1cc(Cl)cs1 [Example 104, 1-{3-chloro-5-[(4-(4-chlorothiophen-2-yl)-5-{[isopropyl(methyl)amino]methyl}thiazol-2-yl)carbamoyl]-2-pyridyl}piperidine-4-carboxylic acid] | – | 3.5 | 105 | 36 | 63% | – | – | –
C[C@H]1CCCN1Cc1sc(NC(=O)c2cnc(N3CCC(C(=O)O)CC3)c(Cl)c2)nc1-c1cc(Cl)cs1 [Example 106, 1-{3-chloro-5-[(4-(4-chlorothiophen-2-yl)-5-{[(2S)-2-methylpyrrolidin-1-yl]methyl}thiazol-2-yl)carbamoyl]-2-pyridyl}piperidine-4-carboxylic acid] | – | 2.1 | 112 | 23 | 63% | – | – | –
C[C@H]1CCN(Cc2sc(NC(=O)c3cnc(N4CCC(C(=O)O)CC4)c(Cl)c3)nc2-c2cc(Cl)cs2)C1 [Example 109, 1-{3-chloro-5-[(4-(4-chlorothiophen-2-yl)-5-{[(3S)-3-methylpyrrolidin-1-yl]methyl}thiazol-2-yl)carbamoyl]-2-pyridyl}piperidine-4-carboxylic acid] | – | 3.9 | 95 | – | 59% | – | – | –
CCCCN(C)Cc1sc(NC(=O)c2cnc(N3CCC(CO)CC3)c(Cl)c2)nc1-c1cc(Cl)cs1 [Example 150, N-[5-{[butyl(methyl)amino]methyl}-4-(4-chlorothiophen-2-yl)thiazol-2-yl]-5-chloro-6-[4-(hydroxymethyl)piperidino]nicotinamide] | – | 3.6 | 102 | – | – | – | 28% | –
CCCCN(C)Cc1sc(NC(=O)c2cnc(NCCCO)c(Cl)c2)nc1-c1cc(Cl)cs1 [Example 151, N-[5-{[butyl(methyl)amino]methyl}-4-(4-chlorothiophen-2-yl)thiazol-2-yl]-5-chloro-6-[(3-hydroxypropyl)amino]nicotinamide] | – | 8.4 | 99 | – | – | – | – | 24
CCCCN(C)Cc1sc(NC(=O)c2cnc(N3CCNC(=O)C3)c(Cl)c2)nc1-c1cc(Cl)cs1 [Example 153, N-[5-{[butyl(methyl)amino]methyl}-4-(4-chlorothiophen-2-yl)thiazol-2-yl]-5-chloro-6-(3-oxopiperazin-1-yl)nicotinamide] | – | 6.1 | 99 | – | – | – | – | 29
C[C@@H]1CCCN1Cc1sc(NC(=O)c2cnc(N3CCC(C(=O)O)CC3)c(F)c2)nc1-c1cc(Cl)cs1 [Example 315, 1-{5-[(4-(4-chlorothiophen-2-yl)-5-{[(2R)-2-methylpyrrolidin-1-yl]methyl}thiazol-2-yl)carbamoyl]-3-fluoro-2-pyridyl}piperidin-4-carboxylic acid] | – | 3.2 | 98 | 45 | – | – | – | –
